Experiments:
Experiment in all cases: Protein expression by high content screening (Cellomics)
Format in all cases: cell-based, human
[1] = test system: cleaved caspase 3 in HeLa cells; details: for Fold activation with respect to control cells, Cleaved Caspase 3: HeLa cells, after 3 hours
Method: (§1) Protein expressions of cyclin D, nuclear factor-kappa B (p65) [NFkB (p65)], ribosomal protein S6 (pS6), tumor protein 53 (p53), protein c-jun N-terminal kinase (pJNK), cleaved caspase 9, cleaved caspase 3 and cleaved poly(ADP-ribose) polymerase (PARP) was carried out in HeLa cells [referred to in step 1 of example 16] by Cellomics high content imaging. These primary antibodies were purchased from Santacruz Biotechnology, USA. Briefly 1×10^4 cells were seeded in 96 well tissue culture grade black plate with transparent bottom (Nunc, USA), and allowed to adhere for 24 h, and then replaced with fresh media, and cells were treated with 0.01 μM, 0.003 μM and 0.0003 μM concentrations of compound of Formula (1) [referred to in step 2 of example 16] and incubated for 1 h and 3 h respectively. After respective time point, cells were fixed with 3.7% formaldehyde (Sigma St. Louis, Mo.) for 10 minutes at RT, followed by permeabilization with 0.15% Triton X-100 (Sigma St. Louis, Mo.) for 10 minutes. Then the cells were blocked with 5% Bovine Serum Albumin for 2 hours. After blocking step, specific primary antibodies were added for 1 h, and primary antibodies of different protein were localized by secondary antibody labeled with Dylight548 (red) (Thermofisher, USA). Following secondary incubation, the nucleus was stained with Hoechst 3342 (blue) (Sigma, USA). Immunofluorescence was determined by scanning the plates on Cellomics Array Scan® VTI HCS Reader (Thermo-Fisher Scientific Inc., Waltham, Mass.). All the data points were analyzed using the Compartmental Analysis bio-algorithm of Cellomics and quantitative data were expressed as % activation in comparison to the untreated cells. 1000 cells were counted for each replicate well and the results were presented as an average±S.E.

[2] = test system: cleaved caspase 9 in HeLa cells; details: for Fold activation with respect to control cells, Cleaved Caspase 9: HeLa cells, after 3 hours
Method: as §1

[3] = test system: cleaved poly(ADP-ribose) polymerase (PARP) in HeLa cells; details: for Fold activation with respect to control cells, Cleaved PARP: HeLa cells, after 3 hours
Method: as §1

cyclin D in HeLa cells = details: for Fold down regulation with respect to control cells, Cyclin D: HeLa cells, after 3 hours
Method: as §1

[4] = test system: nuclear factor-kappa B (p65) [NFkB (p65)] in HeLa cells; details: for Fold down regulation with respect to control cells, NFkB (p65): HeLa cells, after 3 hours
Method: as §1

[5] = test system: protein c-jun N-terminal kinase (pJNK) in HeLa cells; details: for Fold activation with respect to control cells, pJNK: HeLa cells, after 3 hours
Method: as §1

[6] = test system: ribosomal protein S6 (pS6) in HeLa cells; details: for Fold down regulation with respect to control cells, pS6: HeLa cells, after 3 hours
Method: as §1

[7] = test system: tumor protein 53 (p53) in HeLa cells; details: for Fold activation with respect to control cells, P53: HeLa cells, after 3 hours
Method: as §1

Q: CC(C)CC1CCC(O)(C(C)(O)C(=O)NC2C(=O)N3NCCCC3C(=O)N(O)C(C)C(=O)NCC(=O)N3NCCCC3C(=O)N(O)C(C)C(=O)OC2C(C)C)OC1C (centres unmarked) [Formula (1a), N-(6,18-dihydroxy-22-isopropyl-7,19-dimethyl-5,8,11,17,20,24-hexaoxotetracosa hydrodipyridazino[6,1-f:6′,1′-o][1,4,7,10,13,16]oxapentaazacyclononadecin-23-yl)-2-hydroxy-2-(2-hydroxy-5-isobutyl-6-methyltetrahydro-2H-pyran-2-yl)propanamide] was tested. Which “Fold activation with respect to control cells, Cleaved Caspase 3” value (“Fold activation … Cleaved Caspase 3” for short) ([1]; 0.0003 μM) did it give?
A: −0.04 fold

Q: What about the “Fold activation … Cleaved Caspase 3” value ([1]; 0.003 μM) of the same molecule?
A: 0.53 fold

Q: What about the “Fold activation … Cleaved Caspase 3” value ([1]; 0.01 μM) of the same molecule?
A: 1.62 fold

Q: What about the “effect on cleaved caspase 3 (in words)” value ([1]; cancer cells, conclusion) of the same molecule?
A: prominent upregulation

Q: And the “Fold activation with respect to control cells, Cleaved Caspase 9” value (from here on “Fold activation … Cleaved Caspase 9”) ([2]; 0.0003 μM)?
A: −0.04 fold

Q: What about the “Fold activation … Cleaved Caspase 9” value ([2]; 0.003 μM) of the same molecule?
A: 0.53 fold

Q: What about the “Fold activation … Cleaved Caspase 9” value ([2]; 0.01 μM) of the same molecule?
A: 2.22 fold

Q: And the “effect on cleaved caspase 9 expression (in words)” value ([2]; cancer cells, conclusion)?
A: up-regulates

Q: What about the “Fold activation with respect to control cells, Cleaved PARP” value (from here on “Fold activation … Cleaved PARP”) ([3]; 0.0003 μM) of the same molecule?
A: 0.52 fold

Q: What about the “Fold activation … Cleaved PARP” value ([3]; 0.003 μM) of the same molecule?
A: 1.09 fold

Q: What about the “Fold activation … Cleaved PARP” value ([3]; 0.01 μM) of the same molecule?
A: 1.51 fold

Q: And the “effect on cleaved PARP (in words)” value ([3]; cancer cells, conclusion)?
A: prominent upregulation

Q: What about the “Fold down regulation with respect to control cells, Cyclin D” value (“Fold down regulation … Cyclin D” for short) (cyclin D in HeLa cells; 0.0003 μM) of the same molecule?
A: −0.57 fold

Q: What about the “Fold down regulation … Cyclin D” value (cyclin D in HeLa cells; 0.003 μM) of the same molecule?
A: −0.89 fold

Q: What about the “Fold down regulation … Cyclin D” value (cyclin D in HeLa cells; 0.01 μM) of the same molecule?
A: −3.81 fold

Q: And the “effect on cyclin D protein expression (in words)” value (cyclin D in HeLa cells; cancer cells, conclusion)?
A: significantly downregulates

Q: What about the “Fold down regulation with respect to control cells, NFkB (p65)” value (from here on “Fold down regulation … (p65)”) ([4]; 0.0003 μM) of the same molecule?
A: −0.46 fold

Q: What about the “Fold down regulation … (p65)” value ([4]; 0.003 μM) of the same molecule?
A: −0.80 fold

Q: What about the “Fold down regulation … (p65)” value ([4]; 0.01 μM) of the same molecule?
A: −1.86 fold

Q: What about the “effect on NFkB (p65) protein expression (in words)” value ([4]; cancer cells, conclusion) of the same molecule?
A: significantly downregulates

Q: And the “Fold activation with respect to control cells, pJNK” value (“Fold activation … pJNK” for short) ([5]; 0.0003 μM)?
A: 0.55 fold

Q: And the “Fold activation … pJNK” value ([5]; 0.003 μM)?
A: 0.85 fold

Q: And the “Fold activation … pJNK” value ([5]; 0.01 μM)?
A: 2.42 fold

Q: And the “effect on pJNK expression (in words)” value ([5]; cancer cells, conclusion)?
A: up-regulates

Q: And the “Fold down regulation with respect to control cells, pS6” value (“Fold down regulation … pS6” for short) ([6]; 0.0003 μM)?
A: −0.42 fold

Q: And the “Fold down regulation … pS6” value ([6]; 0.003 μM)?
A: −0.56 fold

Q: What about the “Fold down regulation … pS6” value ([6]; 0.01 μM) of the same molecule?
A: −1.97 fold

Q: And the “effect on pS6 protein expression (in words)” value ([6]; cancer cells, conclusion)?
A: significantly downregulates

Q: What about the “Fold activation with respect to control cells, P53” value (“Fold activation … P53” for short) ([7]; 0.0003 μM) of the same molecule?
A: −0.15 fold

Q: And the “Fold activation … P53” value ([7]; 0.003 μM)?
A: 0.55 fold

Q: What about the “Fold activation … P53” value ([7]; 0.01 μM) of the same molecule?
A: 2.27 fold

Q: What about the “effect on p53 expression (in words)” value ([7]; cancer cells, conclusion) of the same molecule?
A: up-regulates
